# Test results taken from patent US5571836A, “Viral attachment inhibitors” (priority 1995, dated 1996).
# Where a name gives a salt, the structure may show the parent alone.
# Columns and labels:
# [1] = format: physicochemical; conditions: control solutions without enzyme
# Description: Compound (IV) was incubated at 37° C. with Vibrio cholerae neuraminidase (450 U/ml) in 0.1M acetate buffer, pH 5.6, containing 0.9% NaCi and 0.1% CaCl2. Neuraminidase cleavage was determined on aliquots taken at intervals by TLC analysis (Merck silica gel plates in propanol/ethanol/25% aqueous ammonia, 2:2:1). Spots were developed by charring the plates with 3% H3 PO4 at 150° C. and quantitated densitometrically. The results are depicted in The FIGURE (v).
# [2] = system: influenza virus B/Singapore/222/79; experiment: Fetuin binding inhibition assay, influenza virus B/Singapore/222/79; conditions: for A^i (absorbance): 492 nm
# [3] = system: influenza virus Victoria/3/75; experiment: Fetuin binding inhibition assay, influenza virus Victoria/3/75; conditions: for A^i (absorbance): 492 nm
# influenza viruses = experiment: Fetuin binding inhibition assay, influenza virus strains overall
# [4] = system: influenza virus USSR/3/85; experiment: Fetuin binding inhibition assay, influenza virus USSR/3/85; conditions: for A^i (absorbance): 492 nm
# [5] = system: influenza virus Philippines/2/82; experiment: Fetuin binding inhibition assay, influenza virus Philippines/2/82; conditions: for A^i (absorbance): 492 nm
# [6] = system: influenza virus B/Hong Kong/8/73; experiment: Fetuin binding inhibition assay, influenza virus B/Hong Kong/8/73; conditions: for A^i (absorbance): 492 nm
# [7] = system: influenza virus USSR/2/85; experiment: Fetuin binding inhibition assay, influenza virus USSR/2/85; conditions: for A^i (absorbance): 492 nm
# [8] = system: influenza virus Chile/1/83; experiment: Fetuin binding inhibition assay, influenza virus Chile/1/83; conditions: for A^i (absorbance): 492 nm
# [9] = system: influenza virus Port Chalmers/1/73; experiment: Fetuin binding inhibition assay, influenza virus Port Chalmers/1/73; conditions: for A^i (absorbance): 492 nm
# [10] = system: influenza virus England/321/77; experiment: Fetuin binding inhibition assay, influenza virus England/321/77; conditions: for A^i (absorbance): 492 nm
# [11] = system: influenza virus Taiwan/1/86; experiment: Fetuin binding inhibition assay, influenza virus Taiwan/1/86; conditions: for A^i (absorbance): 492 nm
# [12] = system: influenza virus Texas/1/77; experiment: Fetuin binding inhibition assay, influenza virus Texas/1/77; conditions: for A^i (absorbance): 492 nm
# influenza virus X-31 = experiment: Fetuin binding inhibition assay, influenza virus X-31; conditions: for A^i (absorbance): 492 nm
# [13] = system: influenza virus B/USSR/100/83; experiment: Fetuin binding inhibition assay, influenza virus B/USSR/100/83; conditions: for A^i (absorbance): 492 nm
# [14] = system: influenza virus USSR/90/77; experiment: Fetuin binding inhibition assay, influenza virus USSR/90/77; conditions: for A^i (absorbance): 492 nm
structure (smiles),measurement,setting,value
"CC(=S)NC1C(O)CC(OCc2ccccc2)(C(=O)O)OC1C(O)C(O)CO [IV, benzyl 3,5-dideoxy5-thioacetamido-α-D-glycero-D-galacto-nonulopyranosidonicacid (sodium salt)]",Stability in the absence of enzyme,[1],at least 23 hours
same,-lgKd(i),[2]; 1.28 mM sialoside,3.6
same,A^i (absorbance),[2]; 1.28 mM sialoside,0.18
same,-lgKd(i),[2]; 2.56 mM sialoside,3.7
same,A^i (absorbance),[2]; 2.56 mM sialoside,0.09
same,-lgKd(i),[2]; .32 mM sialoside,3.2
same,A^i (absorbance),[2]; .32 mM sialoside,0.56
same,-lgKd(i),[2]; .64 mM sialoside,3.5
same,A^i (absorbance),[2]; .64 mM sialoside,0.35
same,-lgKd ± SD,[2]; mean over concentrations,3.5 ± 0.2
same,-lgKd(i),[3]; 1.60 mM sialoside,3.3
same,A^i (absorbance),[3]; 1.60 mM sialoside,0.35
same,-lgKd(i),[3]; .05 mM sialoside,3.3
same,A^i (absorbance),[3]; .05 mM sialoside,0.71
same,-lgKd(i),[3]; .10 mM sialoside,3.3
same,A^i (absorbance),[3]; .10 mM sialoside,0.69
same,-lgKd(i),[3]; .20 mM sialoside,3.5
same,A^i (absorbance),[3]; .20 mM sialoside,0.61
same,-lgKd(i),[3]; .40 mM sialoside,3.4
same,A^i (absorbance),[3]; .40 mM sialoside,0.56
same,-lgKd(i),[3]; .80 mM sialoside,3.4
same,A^i (absorbance),[3]; .80 mM sialoside,0.46
same,-lgKd ± SD,[3]; mean over concentrations,3.4 ± 0.08
same,Inhibition of virus strains,influenza viruses,inhibits some virus strains better than its analog
same,-lgKd(i),[4]; 1.28 mM sialoside,3.6
same,A^i (absorbance),[4]; 1.28 mM sialoside,0.32
same,-lgKd(i),[4]; 2.56 mM sialoside,3.8
same,A^i (absorbance),[4]; 2.56 mM sialoside,0.12
same,-lgKd(i),[4]; .08 mM sialoside,3.8
same,A^i (absorbance),[4]; .08 mM sialoside,1.05
same,-lgKd(i),[4]; .16 mM sialoside,3.8
same,A^i (absorbance),[4]; .16 mM sialoside,0.81
same,-lgKd(i),[4]; .32 mM sialoside,3.8
same,A^i (absorbance),[4]; .32 mM sialoside,0.62
same,-lgKd(i),[4]; .64 mM sialoside,3.7
same,A^i (absorbance),[4]; .64 mM sialoside,0.43
same,-lgKd ± SD,[4]; mean over concentrations,3.8 ± 0.08
same,-lgKd(i),[5]; 1.60 mM sialoside,4.1
same,A^i (absorbance),[5]; 1.60 mM sialoside,0.20
same,-lgKd(i),[5]; .05 mM sialoside,4.0
same,A^i (absorbance),[5]; .05 mM sialoside,0.75
same,-lgKd(i),[5]; .10 mM sialoside,4.4
same,A^i (absorbance),[5]; .10 mM sialoside,0.59
same,-lgKd(i),[5]; .20 mM sialoside,4.1
same,A^i (absorbance),[5]; .20 mM sialoside,0.56
same,-lgKd(i),[5]; .40 mM sialoside,4.1
same,A^i (absorbance),[5]; .40 mM sialoside,0.43
same,-lgKd(i),[5]; .80 mM sialoside,4.1
same,A^i (absorbance),[5]; .80 mM sialoside,0.32
same,-lgKd ± SD,[5]; mean over concentrations,4.1
same,-lgKd(i),[6]; 1.28 mM sialoside,2.6
same,A^i (absorbance),[6]; 1.28 mM sialoside,0.46
same,-lgKd(i),[6]; 2.56 mM sialoside,2.7
same,A^i (absorbance),[6]; 2.56 mM sialoside,0.32
same,-lgKd(i),[6]; .64 mM sialoside,2.5
same,A^i (absorbance),[6]; .64 mM sialoside,0.54
same,-lgKd ± SD,[6]; mean over concentrations,2.6 ± 0.1
same,-lgKd(i),[7]; 1.28 mM sialoside,2.6
same,A^i (absorbance),[7]; 1.28 mM sialoside,0.23
same,-lgKd(i),[7]; 2.56 mM sialoside,2.5
same,A^i (absorbance),[7]; 2.56 mM sialoside,0.21
same,-lgKd(i),[7]; .64 mM sialoside,2.6
same,A^i (absorbance),[7]; .64 mM sialoside,0.28
same,-lgKd ± SD,[7]; mean over concentrations,2.6 ± 0.06
same,-lgKd(i),[8]; 1.28 mM sialoside,3.6
same,A^i (absorbance),[8]; 1.28 mM sialoside,0.36
same,-lgKd(i),[8]; 2.56 mM sialoside,3.5
same,A^i (absorbance),[8]; 2.56 mM sialoside,0.25
same,-lgKd(i),[8]; .08 mM sialoside,3.5
same,A^i (absorbance),[8]; .08 mM sialoside,1.27
same,-lgKd(i),[8]; .16 mM sialoside,3.5
same,A^i (absorbance),[8]; .16 mM sialoside,1.14
same,-lgKd(i),[8]; .32 mM sialoside,3.5
same,A^i (absorbance),[8]; .32 mM sialoside,0.89
same,-lgKd(i),[8]; .64 mM sialoside,3.5
same,A^i (absorbance),[8]; .64 mM sialoside,0.63
same,-lgKd ± SD,[8]; mean over concentrations,3.5 ± 0.04
same,-lgKd(i),[9]; 1.60 mM sialoside,3.2
same,A^i (absorbance),[9]; 1.60 mM sialoside,0.25
same,-lgKd(i),[9]; .05 mM sialoside,3.2
same,A^i (absorbance),[9]; .05 mM sialoside,0.55
same,-lgKd(i),[9]; .10 mM sialoside,3.4
same,A^i (absorbance),[9]; .10 mM sialoside,0.51
same,-lgKd(i),[9]; .20 mM sialoside,3.4
same,A^i (absorbance),[9]; .20 mM sialoside,0.47
same,-lgKd(i),[9]; .40 mM sialoside,3.3
same,A^i (absorbance),[9]; .40 mM sialoside,0.42
same,-lgKd(i),[9]; .80 mM sialoside,3.1
same,A^i (absorbance),[9]; .80 mM sialoside,0.40
same,-lgKd ± SD,[9]; mean over concentrations,3.3 ± 0.1
same,-lgKd(i),[10]; 1.28 mM sialoside,3.7
same,A^i (absorbance),[10]; 1.28 mM sialoside,0.21
same,-lgKd(i),[10]; 2.56 mM sialoside,3.5
same,A^i (absorbance),[10]; 2.56 mM sialoside,0.16
same,-lgKd(i),[10]; .08 mM sialoside,3.4
same,A^i (absorbance),[10]; .08 mM sialoside,0.98
same,-lgKd(i),[10]; .16 mM sialoside,3.7
same,A^i (absorbance),[10]; .16 mM sialoside,0.73
same,-lgKd(i),[10]; .32 mM sialoside,3.7
same,A^i (absorbance),[10]; .32 mM sialoside,0.56
same,-lgKd(i),[10]; .64 mM sialoside,3.7
same,A^i (absorbance),[10]; .64 mM sialoside,0.37
same,-lgKd ± SD,[10]; mean over concentrations,3.6 ± 0.13
same,-lgKd(i),[11]; 1.28 mM sialoside,3.2
same,A^i (absorbance),[11]; 1.28 mM sialoside,0.33
same,-lgKd(i),[11]; 2.56 mM sialoside,3.2
same,A^i (absorbance),[11]; 2.56 mM sialoside,0.21
same,-lgKd(i),[11]; .08 mM sialoside,3.3
same,A^i (absorbance),[11]; .08 mM sialoside,0.68
same,-lgKd(i),[11]; .16 mM sialoside,3.3
same,A^i (absorbance),[11]; .16 mM sialoside,0.62
same,-lgKd(i),[11]; .32 mM sialoside,3.2
same,A^i (absorbance),[11]; .32 mM sialoside,0.55
same,-lgKd(i),[11]; .64 mM sialoside,3.1
same,A^i (absorbance),[11]; .64 mM sialoside,0.47
same,-lgKd ± SD,[11]; mean over concentrations,3.2 ± 0.08
same,-lgKd(i),[12]; 1.60 mM sialoside,4.0
same,A^i (absorbance),[12]; 1.60 mM sialoside,0.35
same,-lgKd(i),[12]; .05 mM sialoside,3.8
same,A^i (absorbance),[12]; .05 mM sialoside,1.0
same,-lgKd(i),[12]; .10 mM sialoside,4.1
same,A^i (absorbance),[12]; .10 mM sialoside,0.9
same,-lgKd(i),[12]; .20 mM sialoside,4.0
same,A^i (absorbance),[12]; .20 mM sialoside,0.83
same,-lgKd(i),[12]; .40 mM sialoside,4.0
same,A^i (absorbance),[12]; .40 mM sialoside,0.70
same,-lgKd(i),[12]; .80 mM sialoside,3.9
same,A^i (absorbance),[12]; .80 mM sialoside,0.55
same,-lgKd ± SD,[12]; mean over concentrations,4.0 ± 0.1
same,-lgKd(i),influenza virus X-31; 1.28 mM sialoside,3.3
same,A^i (absorbance),influenza virus X-31; 1.28 mM sialoside,0.34
same,-lgKd(i),influenza virus X-31; 2.56 mM sialoside,3.2
same,A^i (absorbance),influenza virus X-31; 2.56 mM sialoside,0.24
same,-lgKd(i),influenza virus X-31; .08 mM sialoside,3.2
same,A^i (absorbance),influenza virus X-31; .08 mM sialoside,0.86
same,-lgKd(i),influenza virus X-31; .16 mM sialoside,3.4
same,A^i (absorbance),influenza virus X-31; .16 mM sialoside,0.72
same,-lgKd(i),influenza virus X-31; .32 mM sialoside,3.3
same,A^i (absorbance),influenza virus X-31; .32 mM sialoside,0.65
same,-lgKd(i),influenza virus X-31; .64 mM sialoside,3.3
same,A^i (absorbance),influenza virus X-31; .64 mM sialoside,0.51
same,-lgKd ± SD,influenza virus X-31; mean over concentrations,3.3 ± 0.08
same,-lgKd(i),[13]; 1.28 mM sialoside,3.7
same,A^i (absorbance),[13]; 1.28 mM sialoside,0.15
same,-lgKd(i),[13]; 2.56 mM sialoside,3.7
same,A^i (absorbance),[13]; 2.56 mM sialoside,0.08
same,-lgKd(i),[13]; .16 mM sialoside,3.3
same,A^i (absorbance),[13]; .16 mM sialoside,0.52
same,-lgKd(i),[13]; .32 mM sialoside,3.5
same,A^i (absorbance),[13]; .32 mM sialoside,0.40
same,-lgKd(i),[13]; .64 mM sialoside,3.7
same,A^i (absorbance),[13]; .64 mM sialoside,0.25
same,-lgKd ± SD,[13]; mean over concentrations,3.6 ± 0.2
same,-lgKd(i),[14]; 1.28 mM sialoside,3.2
same,A^i (absorbance),[14]; 1.28 mM sialoside,0.41
same,-lgKd(i),[14]; 2.56 mM sialoside,3.2
same,A^i (absorbance),[14]; 2.56 mM sialoside,0.23
same,-lgKd(i),[14]; .08 mM sialoside,3.1
same,A^i (absorbance),[14]; .08 mM sialoside,0.94
same,-lgKd(i),[14]; .16 mM sialoside,3.2
same,A^i (absorbance),[14]; .16 mM sialoside,0.84
same,-lgKd(i),[14]; .32 mM sialoside,3.2
same,A^i (absorbance),[14]; .32 mM sialoside,0.73
same,-lgKd(i),[14]; .64 mM sialoside,3.2
same,A^i (absorbance),[14]; .64 mM sialoside,0.6
same,-lgKd ± SD,[14]; mean over concentrations,3.1 ± 0.09
